17 compounds from patent US7371773B2, “Breast cancer resistance protein (BCRP) inhibitor” (Kabushiki Kaisha Yakult Honsha, priority 2003, dated 2008) can be followed below.

≈ marks a conversion by molar mass, not a printed value.

The first experiment concerns A549/SN-38-4 cell line. Nature of the experiment: Overcoming anticancer drug resistance of A549/SN-38-4 cell line. The format is cell-based, human.
Settings: not given
On the procedure: The effect of a diphenylacrylonitrile derivative on BCRP-mediated anticancer drug resistance was studied by use of the human lung cancer A549/SN-38-4 cell line, which had acquired anticancer drug resistance through BCRP expression. The human lung cancer A549 cell line or the A549/SN-38-4 cell line was suspended in 10% FBS/Ham's F-12, and the resultant suspension was inoculated into a 96-well microplate, followed by culturing at 5% CO2 and 37° C. overnight (2×10^3 cells/50 μL/well). Thereafter, a 10% FBS/Ham's F-12 solution (25 μL) containing a diphenylacrylonitrile derivative and SN-38 or mitoxantrone was added to each of the wells, followed by culturing at 5% CO2 and 37° C. for 48 hours. After completion of culturing, the number of viable cells was counted by use of TetraColor ONE according to the attached instruction manual. […] The greater the relative resistance value, the higher the level of acquired resistance.
On to `COc1ccc(/C(C#N)=C/c2ccc(OP(=O)(O)O)cc2)cc1OC` [Compound 70, mono-{4-[(Z)-2-cyano-2-(3,4-dimethoxy-phenyl)-vinyl]-phenyl} phosphate], for which the “Resistance overcoming effect EC50” value was 0.24 µg/mL.

For the compound `COc1ccc(/C(C#N)=C/c2ccc(OP(=O)(O)O)c(OC)c2)cc1OC` [Compound 71, mono-{4-[(Z)-2-cyano-2-(3,4-dimethoxy-phenyl)-vinyl]-2-methoxy-phenyl} phosphate], the “Resistance overcoming effect EC50” value was 0.29 µg/mL.

For “(Z)-2-(3,4-dimethoxyphenyl)-3-(4-β-D-glucopyranosyl-phenyl)-acrylonitrile [Compound 44]”, the “Resistance overcoming effect EC50” value turned out to be 0.024 µg/mL.

Regarding “(Z)-2-(3,4-dimethoxyphenyl)-3-[4-(6-phospho-β-D-glucopyranosyl)-phenyl]-acrylonitrile [Compound 73]”, the “Resistance overcoming effect EC50” value was found to be 1.0 µg/mL.

Staying with this experiment, now noted: Homo sapiens, A549; SN-38 resistance, concentration for 50% reduction of relative resistance value, 48 hours; read-out: Resistance overcoming effect EC50.
Turning to `COc1ccc(/C=C(\C#N)c2ccc(OC(C)=O)c(F)c2)cc1OC` [Compound 64, 4-[(Z)-1-cyano-2-(3,4-dimethoxy-phenyl)-vinyl]-2-fluoro-phenyl acetate], the half-maximal effective concentration (EC50) was 0.01 µg/mL.

As to `COc1cc(/C(C#N)=C/c2ccc(OC(C)=O)cc2)cc(OC)c1OC` [Compound 65, 4-[(Z)-2-cyano-2-(3,4,5-trimethoxy-phenyl)-vinyl]-phenyl acetate], the EC50 was determined as 0.2 µg/mL.

For the compound `CCOC(=O)CCCCCCOc1ccc(/C=C(\C#N)c2ccc(OC)c(OC)c2)cc1` [Compound 66, ethyl 7-[4-[(Z)-2-cyano-2-(3,4-dimethoxy-phenyl)-vinyl]-phenoxy]-heptanoate], the EC50 amounted to 0.71 µg/mL (≈ 1.62 µM).

As to `COc1ccc(/C=C(\C#N)c2ccc(OC(=O)CCCCCCCBr)cc2)cc1OC` [Compound 67, 4-[(Z)-1-cyano-2-(3,4-dimethoxy-phenyl)-vinyl]-phenyl 8-bromo-octanoate], the EC50 turned out to be 0.065 µg/mL (≈ 0.134 µM).

With `COc1ccc(C(C#N)=Cc2cccc(NC(C)=O)c2)cc1OC` [Compound 72, N-[3-[2-cyano-2-(3,4-dimethoxy-phenyl)-vinyl]-phenyl]-acetamide], the EC50 came to 0.028 µg/mL (≈ 0.0869 µM).

For the compound `COc1ccc(/C(C#N)=C/c2cc([N+](=O)[O-])ccc2O)cc1OC` [Compound 76, (Z)-2-(3,4-dimethoxy-phenyl)-3-(2-hydroxy-5-nitro-phenyl)-acrylonitrile], the EC50 amounted to 0.82 µg/mL (≈ 2.51 µM).

Turning to `COc1ccc(/C(C#N)=C/c2ccc(F)c([N+](=O)[O-])c2)cc1OC` [Compound 77, (Z)-2-(3,4-dimethoxy-phenyl)-3-(4-fluoro-3-nitro-phenyl)-acrylonitrile], the EC50 came to 0.3 µg/mL (≈ 0.914 µM).

With `COc1ccc(/C(C#N)=C/c2cc(O)c(OC)c(OC)c2)cc1OC` [Compound 78, (Z)-2-(3,4-dimethoxy-phenyl)-3-(3-hydroxy-4,5-dimethoxy-phenyl)-acrylonitrile], the EC50 is 0.053 µg/mL (≈ 0.155 µM).

`COc1ccc(/C(C#N)=C/c2cc(OC)c(O)c(OC)c2)cc1OC` [Compound 79, (Z)-2-(3,4-dimethoxy-phenyl)-3-(4-hydroxy-3,5-dimethoxy-phenyl)-acrylonitrile]: the EC50 was found to be 0.017 µg/mL (≈ 0.0498 µM).

Still in this experiment, the particulars now being: SN-38 resistance, concentration for 50% reduction of relative resistance value, 48 hours.
For `CCN(CC)CC.COc1ccc(/C(C#N)=C/c2ccc(OS(=O)(=O)O)cc2)cc1OC` [Compound 74, sulphoric acid mono-{4-[(Z)-2-cyano-2-(3,4-dimethoxy-phenyl)-vinyl]-phenyl} ester triethylammonium salt], the “Resistance overcoming effect EC50” value was >1.0 µg/mL.

Take “(Z)-2-(3,4-dimethoxyphenyl)-3-(4-β-maltosyl-phenyl)-acrylonitrile [Compound 51]”: the “Resistance overcoming effect EC50” value worked out at 0.045 µg/mL.

With “(Z)-2-(3,4-dimethoxyphenyl)-3-(4-β-maltotriosyl-phenyl)-acrylonitrile [Compound 54]”, the “Resistance overcoming effect EC50” value is 0.26 µg/mL.

Turning to “(Z)-2-(3,4-dimethoxyphenyl)-3-[4-(6-phospho-β-D-glucopyranosyl)-phenyl]-acrylonitrile sodium salt [Compound 75]”, the “Resistance overcoming effect EC50” value was >1.0 µg/mL.
